The data set in a line: Human HepG2 cell viability assay in 384 well format. The format is toxicity, cell-based. On the set-up: dose 125 nL, time 70.5 hour; concentration not given beside the values. Particulars: HepG2 cells, read-out: Inhibition.
Consider `Cc1cc(C)n(CCCN(C)Cc2cn[nH]c2-c2ccc(F)cc2)n1`, for which the cytotoxicity at 70.5 h is -9.49%.
As for `CCn1ccnc1CN1CCCN(C(=O)c2ccsc2)CC1`, the figure is -2.37%; as for `COc1cc(NC(=O)NC(C2CC2)C2CC2)ccc1N1CCOC1=O`, -18%; as for `CCc1cc(O)n2nc(C3CCCN3C(=O)c3ccccn3)cc2n1` (stereo not given), 17%.
To `c1cc(-c2n[nH]cc2-c2ccnc(N3CCCCCC3)n2)ccn1` belongs 0.607%.
Take `COCCNC(=O)[C@H]1CN(Cc2csc(C)n2)C[C@H]2OCC[C@@H]12`: the cytotoxicity at 70.5 h was -3.29%.
To `Cc1cccc(CN2CCCC3(CCN(CC(=O)N(C)C)C3=O)C2)n1` (stereo not given) belongs -13.1%.
As for `N#CC1(c2ccccc2)CCN(C(=O)CN2C(=O)CCNC2=O)CC1`, the figure is -0.486%; as for `CCC[C@H]1CN(C2CCOCC2)C[C@@H]1NC(=O)CCc1cnccn1`, 6.02%; as for `O=C(O)c1ccccc1-c1c(-c2ccccc2)ncn1C[C@H]1CCCN1`, -3.04%.
Consider `O=C(NCc1cccnc1-n1cncn1)c1ccncc1`, for which the cytotoxicity at 70.5 h is -4.72%.
As for `c1ccc(N2CCC3(COCCN(c4ncccn4)C3)C2)nc1` (stereo not given), the figure is -10%.
`CC(O)CN1CCN(Cc2nnc(C3CC3)o2)CC1` (stereo not given): the cytotoxicity at 70.5 h was -4%.
As for `NC(=O)CS(=O)(=O)Cc1ccc(OCc2ccc(F)cc2)cc1`, the figure is -2.96%; as for `Cc1ccc(CN2CCCC23Cc2ccccc2CNC3=O)cc1` (stereo not given), 21.9%.
For `Cc1nn(CC(=O)N(C)Cc2nncn2C(C)C)c(=O)c2ccccc12`, the cytotoxicity at 70.5 h was -9.91%.
To `CCc1nc(CN2CCCN(C(=O)c3occc3C)CC2)cs1` belongs -7.91%; to `Cc1nnc(NC(=O)NCc2ccnc(N(C)C)c2)s1`, 1.13%; to `CN(CCNc1ncc2c(n1)CCN2c1ccccc1)S(C)(=O)=O`, -9.7%.
For `CC(C)c1ocnc1C(=O)N1CC(=O)Nc2cccnc21`, the cytotoxicity at 70.5 h was -1.78%.
As for `CCCOC1CCCN(C(=O)c2ccnc(N3CCN(C)CC3)c2)C1` (stereo not given), the figure is 23%; as for `Cc1ncccc1NC(=O)[C@H]1C[C@@H]2CCN(Cc3ccsc3)C[C@H]2O1`, -13.8%.
As for `Cc1csc(CNCc2c(C)nn(C)c2N2CCOCC2)n1`, the cytotoxicity at 70.5 h is -0.213%.
Turning to `Cc1nc(O)c2nnn(C[C@H]3CCCN3C(=O)c3ccccc3C)c2n1`, the cytotoxicity at 70.5 h is 11.5%.
As for `Cc1oc(-c2ccsc2)nc1CN1CCCC(c2ccnn2C)C1` (stereo not given), the figure is -23.6%; as for `CCOCCN1CCN(CC(O)c2ccc(C)c(C)c2)CC1` (stereo not given), -10.1%; as for `CC(=O)N1CCN(C(=O)c2snnc2C)[C@H]2CS(=O)(=O)C[C@H]21`, -6.51%.
To `O=C(C1CCCCC1)N1CCO[C@@H]2CNC[C@@H]21` belongs -2.15%; to `CCc1cc(C(=O)N2CCC3(CCCN(CC4CC4)C3=O)C2)cs1` (stereo not given), 6.71%.
As for `Cc1nccn1CCNC(=O)C1(C)CC(c2ccccc2)=NO1` (stereo not given), the figure is -3.18%; as for `O=C1Nc2ccccc2CC12CCCN2Cc1ccc(F)cc1` (stereo not given), 9.33%; as for `CCN(CCOC)C(=O)c1ccc2c(c1)nc(N1CC[C@H](O)C1)n2C`, -8.67%.
For the molecule `c1cc(-c2cn[nH]c2)ncc1CN1CCCCC1`, the cytotoxicity at 70.5 h was -6.79%.
In the case of `CN1C[C@]2(CC[C@@H](C(=O)O)CC2)Oc2ccccc2C1=O`, the cytotoxicity at 70.5 h was -6.54%.
As for `CS(=O)(=O)N1C[C@@H]2COC[C@H](C(=O)Nc3cnccn3)[C@@H]2C1`, the figure is 59.3%; as for `Cc1noc(C2CCCN(C(=O)c3ccc(F)cc3F)C2)n1` (stereo not given), -8.76%.
With `Cc1nc(C)n(CC2CCCN(CCc3ccncc3)C2)n1` (stereo not given), the cytotoxicity at 70.5 h was -2.11%.
Turning to `Fc1cccc(-c2nc(CN3CCn4c(nnc4C4CC4)C3)co2)c1`, the cytotoxicity at 70.5 h is -8.24%.
On to `O=C1CC[C@@H](C(=O)N2CCC(Cn3cc(C4CCCCC4)nn3)CC2)N1`, for which the cytotoxicity at 70.5 h was -1.59%.
With `CS(=O)(=O)NCCCNC(=O)c1cnc(-c2ccsc2)s1`, the cytotoxicity at 70.5 h was -6.18%.
To `Cc1ccc2c(c1)C(=O)NCC1(CCN(C(=O)c3ccccn3)CC1)O2` belongs -7.17%; to `O=C(NCc1ccccn1)[C@H]1COC[C@H]2CN(CC3CC3)C[C@H]21`, -10.6%; to `CC(=O)N1CCN(c2ccnc(C)n2)CC(COc2ccccc2)C1` (stereo not given), -3.78%.
As for `O=C(NCCc1cc2nc(-c3ccncc3)ccn2n1)C1CCOCC1`, the figure is -5.82%; as for `Cc1cccc(COc2ccc(C(C)NS(N)(=O)=O)cc2)c1` (stereo not given), -8.27%.
To `CC(Cc1ccccc1F)NC(=O)CCc1nc(-c2nnc[nH]2)no1` (stereo not given) belongs -4.06%; to `N#Cc1cccc(CNC(=O)Nc2cccnc2N2CCCC2)c1`, -1.72%.
Take `Cc1noc(C)c1CCC(=O)N1CCCN(CC(N)=O)CC1`: the cytotoxicity at 70.5 h was -16.1%.
Take `CCNC(=O)c1cccc(CNC(=O)c2cnc(C(C)(C)C)s2)c1`: the cytotoxicity at 70.5 h is 2.86%.
As for `CN(Cc1cn2c(n1)CN(C(N)=O)CC2)Cc1ccco1`, the figure is -1.71%; as for `Cn1cc(CN2CCCC3(CCN(c4cccnc4)C3=O)C2)cn1` (stereo not given), 20%.
To `O=C(CCc1ccccc1F)NS(=O)(=O)c1ccc2c(c1)OCCO2` belongs 21.2%.
As for `COc1ccc(NC(=O)N2CCCCC2c2ncc[nH]2)cc1` (stereo not given), the figure is -7.7%; as for `OC(CN1CCOCC1)c1cc(Cl)ccc1Cl` (stereo not given), 9.36%; as for `CC(C)c1cc(C(=O)N[C@@H]2CC[C@@H](Oc3ccccc3)[C@@H]2O)on1`, -3.21%.
For `CCS(=O)(=O)c1ccccc1C(=O)NCc1ccnc(N(C)C)c1`, the cytotoxicity at 70.5 h was -11.2%.
To `OCc1ccc(CN2CCC(n3cc(C4CCCCC4)nn3)CC2)o1` belongs -7.14%; to `CC(C)OCc1ccc(CNC(=O)CC(F)(F)F)cc1`, -7.73%.
As for `CCCc1cncnc1N1CCC(NCc2ccc(O)cc2)CC1`, the figure is -2.53%.
On to `NC(=O)N1CC2(CCNCC2)c2cc(Cl)ccc21`, for which the cytotoxicity at 70.5 h was -0.465%.
To `CS(=O)(=O)c1nccn1Cc1ccc(C(N)=O)cc1` belongs -4.15%; to `COc1ccc2c(c1)Cc1c-2nc(N)c(C#N)c1C1CCOC1` (stereo not given), 2.5%.
As for `Nc1ccc(-c2ccc(F)cc2Cl)cn1`, the figure is -8.38%; as for `Cc1cccnc1C(=O)N1C[C@@H]2CC[C@H](Oc3cccc(F)c3)[C@@H]2C1`, -8.25%; as for `CC(C)n1ccc(CN2CCN(c3cc(NC4CC4)nc(N)n3)CC2)c1`, -9%.
As for `Cc1ccc2nc(C(=O)N3CCNC(=O)C3c3cccc(F)c3)cn2c1` (stereo not given), the figure is 24.1%.
With `Cc1cnn(C2CN(Cc3nnc(-c4ccccc4Cl)o3)C2)c1`, the cytotoxicity at 70.5 h was 5.37%.
To `CC(C)c1nnc2n1CC(CNCc1nc3ccccc3o1)CC2` (stereo not given) belongs 2.4%; to `COc1ccc(CN2CCCC2c2cccc(F)c2)c(OC)c1OC` (stereo not given), -6.93%; to `Cn1ccc(N2CCCC(NC(=O)c3ccc(Cl)o3)C2=O)n1` (stereo not given), -10.2%.

(Values after ChEMBL document CHEMBL3507680, “University of Dundee, Gates Library screen for HepG2 cell viability”.)
